Where a name gives a salt, the structure may show the parent alone. Read-outs that look alike come from different tables or passages of the source.

Data on 17 molecules can be found in patent US12421211B2, “Heterocyclic compounds” (Hoffmann-La Roche Inc., priority 2021, dated 2025).

The test concerns Acinetobacter baumannii ATCC17961. Nature of the test: Antimicrobial susceptibility testing: 90% growth inhibitory concentration (IC90) determination. It is filed as cell-based. To be noted: Acinetobacter baumannii, ATCC17961, 16 h, read-out: ATCC 17961 IC90. The method, boiled down:
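Growth inhibition derived in log phase from OD600 kinetics (every 20 minutes, 16h, 35±2° C) of ATCC17961 in Iso-Sensitest medium, inoculum ~5×10^5 CFU/ml. Compounds tested as twofold series, 10 points (e.g. 50 to 0.097 μM final); IC90 and IC50 reported.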

Where [1] appears, read: 90% growth inhibitory concentration, Acinetobacter baumannii ATCC17961, Iso-Sensitest broth, OD 600 nm over 16 h.

Take `COCCn1ncc(-c2ccc(-c3cnc(C(=O)Nc4ccc(C(=O)N5CCN(C(=O)CCC[N+](CCCCN)(CCCCN)CC(=O)O)CC5C)c(Cl)c4)n3C)c(F)c2F)c1C` (centres unmarked) [Example O3, bis(4-aminobutyl)-(carboxymethyl)-[4-[4-[2-chloro-4-[[5-[2,3-difluoro-4-[1-(2-methoxyethyl)-5-methyl-pyrazol-4-yl]phenyl]-1-methyl-imidazole-2-carbonyl]amino]benzoyl]-3-methyl-piperazino]-4-keto-butyl]ammonium formate]: the IC90 (in general, the concentration at which the effect reaches the 90% level) was determined as 113 nM.

On to `COCCn1ncc(-c2ccc(-c3cnc(C(=O)Nc4ccc(C(=O)N5CCN(C(=O)[C@H]6CC[N@+](CC(=O)O)(CC7CNC7)CC6)CC5)c(Cl)c4)n3C)c(C)c2F)c1C` [Example O4, cis 2-[1-(azetidin-3-ylmethyl)-4-[4-[2-chloro-4-[[5-[3-fluoro-4-[1-(2-methoxyethyl)-5-methyl-pyrazol-4-yl]-2-methyl-phenyl]-1-methyl-imidazole-2-carbonyl]amino]benzoyl]piperazine-1-carbonyl]piperidin-1-ium-1-yl]acetic acid formate], for which the IC90 under setting [1] was found to be 118 nM.

Regarding `COCCn1ncc(-c2ccc(-c3cnc(C(=O)Nc4ccc(C(=O)N5CCN(C(=O)CCC[N+](C)(CCCN)CC(=O)O)CC5)c(Cl)c4)n3C)c(C)c2F)c1C` (centres unmarked) [Example O5, 3-aminopropyl-(carboxymethyl)-[4-[4-[2-chloro-4-[[5-[3-fluoro-4-[1-(2-methoxyethyl)-5-methyl-pyrazol-4-yl]-2-methyl-phenyl]-1-methyl-imidazole-2-carbonyl]amino]benzoyl]piperazino]-4-keto-butyl]-methyl-ammonium. 1:12,2,2-trifluoroacetic acid; 2,2,2-trifluoroacetate], the IC90 under setting [1] is 200 nM.

Turning to `COCCn1cc(-c2ccc(-c3cnc(C(=O)Nc4ccc(C(=O)N5CCN(C(=O)[C@H]6CC[N@+](CC(=O)O)(CC7CNC7)CC6)CC5)c(C)c4)n3C)c(F)c2F)c(C)n1` [Example O8, cis 2-[1-(azetidin-3-ylmethyl)-4-[4-[4-[[5-[2,3-difluoro-4-[1-(2-methoxyethyl)-3-methylpyrazol-4-yl]phenyl]-1-methylimidazole-2-carbonyl]amino]-2-methylbenzoyl]piperazine-1-carbonyl]piperidin-1-ium-1-yl]acetic acid formate], the IC90 is 245 nM.

For `COCCn1cc(-c2ccc(-c3cnc(C(=O)Nc4ccc(C(=O)N5CCN(C(=O)[C@H]6CC[N@+](CC(=O)O)(CC7CNC7)CC6)CC5)c(C)c4)n3C)cc2F)c(C)n1` [Example O9, cis 2-[1-(azetidin-3-ylmethyl)-4-[4-[4-[[5-[3-fluoro-4-[1-(2-methoxyethyl)-3-methyl-pyrazol-4-yl]phenyl]-1-methyl-imidazole-2-carbonyl]amino]-2-methyl-benzoyl]piperazine-1-carbonyl]piperidin-1-ium-1-yl]acetic acid formate], the IC90 was determined as 284 nM.

Consider `COCCn1ncc(-c2ccc(-c3cnc(C(=O)Nc4ccc(C(=O)N5CCN(C(=O)[C@H]6CC[N@+](CC(=O)O)(CC7CNC7)CC6)CC5)c(C)c4)n3C)c(C)c2F)c1C` [Example O10, cis 2-[1-(azetidin-3-ylmethyl)-4-[4-[4-[[5-[3-fluoro-4-[1-(2-methoxyethyl)-5-methylpyrazol-4-yl]-2-methylphenyl]-1-methylimidazole-2-carbonyl]amino]-2-methylbenzoyl]piperazine-1-carbonyl]piperidin-1-ium-1-yl]acetic acid; formate], for which the IC90 stood at 231 nM.

With `COCCn1ncc(-c2ccc(-c3cnc(C(=O)Nc4ccc(C(=O)N5CCN(C(=O)[C@@H]6C[C@@H](O)C[N+]6(C)C)CC5)c(Cl)c4)n3C)c(C)c2F)c1C` [Example O11, N-[3-chloro-4-[4-[(2S,4R)-4-hydroxy-1,1-dimethyl-pyrrolidin-1-ium-2-carbonyl]piperazine-1-carbonyl]phenyl]-5-[3-fluoro-4-[1-(2-methoxyethyl)-5-methyl-pyrazol-4-yl]-2-methyl-phenyl]-1-methyl-imidazole-2-carboxamide; 2,2,2-trifluoroacetate], the IC90 was found to be 156 nM.

With `COCCn1ncc(-c2ccc(-c3cnc(C(=O)Nc4ccc(C(=O)N5CCC(C(=O)NCCCc6cc[n+](CC(=O)O)c(CCCN)c6)CC5)c(Cl)c4)n3C)c(F)c2F)c1C` [Example O12, 2-[2-(3-aminopropyl)-4-[3-[[1-[2-chloro-4-[[5-[2,3-difluoro-4-[1-(2-methoxyethyl)-5-methyl-pyrazol-4-yl]phenyl]-1-methyl-imidazole-2-carbonyl]amino]benzoyl]isonipecotoyl]amino]-propyl]pyridin-1-ium-1-yl]acetic acid; formate], under setting [1], the IC90 was 339 nM.

In the case of `COCCn1ncc(-c2ccc(-c3cnc(C(=O)Nc4ccc(C(=O)N5CCN(C(=O)CCC[N+](C)(CC(=O)O)CC6CNC6)CC5)c(Cl)c4)n3C)c(F)c2F)c1C` (centres unmarked) [Example P1, azetidin-3-ylmethyl-(carboxymethyl)-[4-[4-[2-chloro-4-[[5-[2,3-difluoro-4-[1-(2-methoxyethyl)-5-methyl-pyrazol-4-yl]phenyl]-1-methyl-imidazole-2-carbonyl]amino]benzoyl]piperazin-1-yl]-4-oxo-butyl]-methyl-ammonium; formate], the IC90 under setting [1] turned out to be 191 nM.

Regarding `COCCn1ncc(-c2ccc(-c3cnc(C(=O)Nc4ccc(C(=O)N5CCN(C(=O)CCC[N+](CCCCN)(CCCCN)CC(=O)O)CC5)c(Cl)c4)n3C)c(F)c2F)c1C` [Example P2, bis(4-aminobutyl)-(carboxymethyl)-[4-[4-[2-chloro-4-[[5-[2,3-difluoro-4-[1-(2-methoxyethyl)-5-methyl-pyrazol-4-yl]phenyl]-1-methyl-imidazole-2-carbonyl]amino]benzoyl]piperazin-1-yl]-4-oxo-butyl]ammonium; formate], the IC90 amounted to 66 nM.

`COCCn1ncc(-c2ccc(-c3cnc(C(=O)Nc4ccc(C(=O)N5CCN(C(=O)CCC[N+](C)(CCCN)CCCN)CC5)c(Cl)c4)n3C)c(F)c2F)c1C` [Example P3, bis(3-aminopropyl)-[4-[4-[2-chloro-4-[[5-[2,3-difluoro-4-[1-(2-methoxyethyl)-5-methyl-pyrazol-4-yl]phenyl]-1-methyl-imidazole-2-carbonyl]amino]benzoyl]piperazin-1-yl]-4-oxo-butyl]-methyl-ammonium; formate]: the IC90 under setting [1] amounted to 293 nM.

As for `COCCn1ncc(-c2ccc(-c3cnc(C(=O)Nc4ccc(C(=O)N5CCN(C(=O)CCC[N+](CCN(C)C)(CCN(C)C)CC(=O)O)CC5)c(Cl)c4)n3C)c(F)c2F)c1C` [Example P4, carboxymethyl-[4-[4-[2-chloro-4-[[5-[2,3-difluoro-4-[1-(2-methoxyethyl)-5-methyl-pyrazol-4-yl]phenyl]-1-methyl-imidazole-2-carbonyl]amino]benzoyl]piperazin-1-yl]-4-oxo-butyl]-bis[2-(dimethylamino)ethyl]ammonium; 2,2,2-trifluoroacetate], under setting [1], the IC90 came out at 657 nM.

As to `COCCn1ncc(-c2ccc(-c3cnc(C(=O)Nc4ccc(C(=O)N5CCN(C(=O)CCCC(=O)N6CC[N+](CCCN)(CC(=O)O)CC6)CC5)c(Cl)c4)n3C)c(F)c2F)c1C` [Example P5, 2-[1-(3-aminopropyl)-4-[5-[4-[2-chloro-4-[[5-[2,3-difluoro-4-[1-(2-methoxyethyl)-5-methyl-pyrazol-4-yl]phenyl]-1-methyl-imidazole-2-carbonyl]amino]benzoyl]piperazino]-5-keto-pentanoyl]piperazin-1-ium-1-yl]acetic acid; formate], under setting [1], the IC90 came out at 295 nM.

In the case of `COCCn1ncc(-c2ccc(-c3cnc(C(=O)Nc4ccc(C(=O)N5CCN(C(=O)CCCC(=O)N6CC[N+](CC(=O)O)(CC7CNC7)CC6)CC5)c(Cl)c4)n3C)c(F)c2F)c1C` [Example P6, 2-[1-(azetidin-3-ylmethyl)-4-[5-[4-[2-chloro-4-[[5-[2,3-difluoro-4-[1-(2-methoxyethyl)-5-methyl-pyrazol-4-yl]phenyl]-1-methyl-imidazole-2-carbonyl]amino]benzoyl]piperazino]-5-keto-pentanoyl]piperazin-1-ium-1-yl]acetic acid; 1:1 formate], the IC90 under setting [1] turned out to be 310 nM.

Consider `COCCn1cc(-c2ccc(-c3cnc(C(=O)Nc4ccc(C(=O)N5CCN(C(=O)C6CC[N+]7(CCNC(=O)C7)CC6)CC5)c(Cl)c4)n3C)c(F)c2F)c(C)n1` (centres unmarked) [Example Q1, N-[3-chloro-4-[4-(4-oxo-3-aza-6-azoniaspiro[5.5]undecane-9-carbonyl)piperazine-1-carbonyl]phenyl]-5-[2,3-difluoro-4-[1-(2-methoxyethyl)-3-methyl-pyrazol-4-yl]phenyl]-1-methyl-imidazole-2-carboxamide; 2,2,2-trifluoroacetate], for which the IC90 is 165 nM.

With `COCCn1cc(-c2ccc(-c3cnc(C(=O)Nc4ccc(C(=O)N5CCN(C(=O)C6CC[N+]7(CC6)CCN(Cc6ccccc6)CC7)CC5)c(Cl)c4)n3C)c(F)c2F)c(C)n1` [Example Q2, N-[4-[4-(3-benzyl-3-aza-6-azoniaspiro[5.5]undecane-9-carbonyl)piperazine-1-carbonyl]-3-chloro-phenyl]-5-[2,3-difluoro-4-[1-(2-methoxyethyl)-3-methyl-pyrazol-4-yl]phenyl]-1-methyl-imidazole-2-carboxamide], the IC90 turned out to be 705 nM.

With `COCCn1cc(-c2ccc(-c3cnc(C(=O)Nc4ccc(C(=O)N5CCN(C(=O)[C@H]6CC[N@@+](CC(=O)O)(CC7CNC7)CC6)CC5)c(Cl)c4)n3C)c(F)c2F)c(C)n1` [Example Q3, trans 2-[1-(azetidin-3-ylmethyl)-4-[4-[2-chloro-4-[[5-[2,3-difluoro-4-[1-(2-methoxyethyl)-3-methyl-pyrazol-4-yl]phenyl]-1-methyl-imidazole-2-carbonyl]amino]benzoyl]piperazine-1-carbonyl]piperidin-1-ium-1-yl]acetic acid; formate], the IC90 was 359 nM.
